Like-named read-outs stand apart in the source and are kept apart here. Where only a bound is given, the exact number is not on record here.

The text below walks through data of patent publication US11845760B2, “PRMT5 inhibitors” (AMGEN INC., priority 2020, dated 2023).

One experiment has as its system HCT116 MTAP null cells. Briefly: HCT116 MTAP null cell line proliferation (CellTiter-Glo cell viability, 6 days). Type of experiment: cell-based. As to conditions: HCT116 MTAP null cells, 6 days of treatment, CellTiter-Glo cell viability, read-out: HCT-116 MTAP null IC50. Put shortly:
(§1)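 Isogenic HCT116 pair (parent and MTAP double-allele knockout) in RPMI 1640 + 10% FBS, exposed 6 days to compound: 8–9-point 1:3 dilutions from 1 or 10 μM top, or 22-point 1:2 dilutions from 10 or 50 μM top. CellTiter-Glo luminescence; IC50 from sigmoidal fit (Hill −1) or 4-parameter logistic.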
Background: In ATP-based viability assays light output follows the ATP content of the culture.

The test system of another experiment is HCT116 WT cells. Briefly: HCT116 WT cell line proliferation (CellTiter-Glo cell viability, 6 days). Format: cell-based. Conditions: HCT116 WT (parent) cells, 6 days of treatment, CellTiter-Glo cell viability, read-out: HCT-116 WT IC50. The essentials: as §1

By IC50 is commonly meant the concentration needed to halve the response being measured. For `Cn1ncc2c(N)nc3cc(Cl)c(C(=O)N4CCC(c5ccc(C(F)(F)F)cn5)C4)cc3c21` (racemic) [Example 543, (4-amino-7-chloro-1-methyl-1H-pyrazolo[4,3-c]quinolin-8-yl)((3R)-3-(5-(trifluoromethyl)-2-pyridinyl)-1-pyrrolidinyl)methanone and (4-amino-7-chloro-1-methyl-1H-pyrazolo[4,3-c]quinolin-8-yl)((3S)-3-(5-(trifluoromethyl)-2-pyridinyl)-1-pyrrolidinyl)methanone], the IC50 in the experiment with HCT116 MTAP null cells (HCT116-MTAP null, 144 h) is 18 nM; with HCT116 WT cells (Homo sapiens, HCT-116, 144 h), 1860 nM.
On the same counts, the results for `Nc1nc2cnc(C(=O)N3CCOC[C@H]3c3ccc(C(F)(F)F)cc3)cc2c2c1COC2` (single isomer, unassigned) [Example 482] are over 1000 nM and over 10000 nM.
The matching figures for `C[C@@H]1COC[C@H](c2ccc(OC3CC3)nn2)N1C(=O)c1cc2c3c(c(N)nc2cn1)COC3` [Example 550, (4-amino-1,3-dihydrofuro[3,4-c][1,7]naphthyridin-8-yl)((3S,5R)-3-(6-(cyclopropyloxy)-3-pyridazinyl)-5-methyl-4-morpholinyl)methanone]: 73 nM and 3150 nM.
On the same counts, the results for `CC(C)C[C@@H]1COC[C@H](c2ccc(C(F)(F)F)cc2)N1C(=O)c1cc2c3c(c(N)nc2cn1)COC3` (single isomer, unassigned) [Example 566] are over 10000 nM and over 10000 nM.
On to `C[C@H]1OCc2c1c(N)nc1ccc(C(=O)N3C[C@H](c4ccc(Cl)cc4)[C@@H](O)C3)cc21` (single isomer, unassigned) [Example 467], for which the IC50 came out at 982 nM with HCT116 MTAP null cells (HCT116-MTAP null, 144 h) and 31200 nM in the experiment on HCT116 WT cells (Homo sapiens, HCT-116, 144 h).
The matching figures for `Nc1nc2ccc(C(=O)N3CCOC[C@@H]3c3ncc(Br)cc3F)cc2c2c1COC2` (single isomer, unassigned) [Example 622]: 239 nM and 7950 nM.
On the same counts, the results for `C[C@@H]1OCc2c1c(N)nc1ccc(C(=O)N3CCOC[C@@H]3c3ccc(OC(F)(F)F)cc3)cc21` (single isomer, unassigned) [Example 569] are over 1000 nM and over 10000 nM.
On the same counts, the results for `Nc1nc2ccc(C(=O)N3CCOC[C@@H]3c3ccc(C(F)(F)F)cc3)cc2c2c1COC2` (single isomer, unassigned) [Example 456] are 102 nM and 4360 nM.
For `Nc1nc2cc(F)c(C(=O)N3CC(c4ccc(C(F)(F)F)cc4)C3)cc2c2c1COC2` [Example 422], the IC50 in the experiment on HCT116 MTAP null cells amounted to 633 nM; with HCT116 WT cells, 12500 nM.
In the case of `C[C@H]1OCc2c1c(N)nc1ccc(C(=O)N3CC(c4ccc(C(F)(F)F)cn4)C3)cc21` [Example 421, ((3R)-4-amino-3-methyl-1,3-dihydrofuro[3,4-c]quinolin-8-yl)(3-(5-(trifluoromethyl)-2-pyridinyl)-1-azetidinyl)methanone], the half-maximal inhibitory concentration (IC50) with HCT116 MTAP null cells (HCT116-MTAP null, 144 h) is 914 nM; in the experiment with HCT116 WT cells (Homo sapiens, HCT-116, 144 h), over 50000 nM.
On the same counts, the results for `Cc1cc2nc(N)c3c(cnn3C)c2cc1C(=O)N1CCOC[C@@H]1c1ccc(C(F)(F)F)cc1` [Example 414, (4-amino-3,7-dimethyl-3H-pyrazolo[3,4-c]quinolin-8-yl)((3S)-3-(4-(trifluoromethyl)phenyl)-4-morpholinyl)methanone] are 56 nM and 2800 nM.
The matching figures for `C[C@@H]1COC[C@H](c2ccc(C(F)(F)F)cc2)N1C(=O)c1cc2c3c(c(N)nc2cc1F)COC3` [Example 526, (4-amino-7-fluoro-1,3-dihydrofuro[3,4-c]quinolin-8-yl)((3R,5S)-3-methyl-5-(4-(trifluoromethyl)phenyl)-4-morpholinyl)methanone]: 6 nM and 120 nM.
Turning to `Nc1nc2cnc(C(=O)N3CCOCC3c3ccc(OC(F)(F)F)cc3F)cc2c2c1COC2` (racemic) [Example 386, (4-amino-1,3-dihydrofuro[3,4-c][1,7]naphthyridin-8-yl)((3R)-3-(2-fluoro-4-(trifluoromethoxy)phenyl)-4-morpholinyl)methanone and (4-amino-1,3-dihydrofuro[3,4-c][1,7]naphthyridin-8-yl)((3S)-3-(2-fluoro-4-(trifluoromethoxy)phenyl)-4-morpholinyl)methanone], the IC50 came to 344 nM in the experiment on HCT116 MTAP null cells and 5020 nM with HCT116 WT cells.
On the same counts, the results for `Nc1nc2cnc(C(=O)N3CCOCC3c3ccc(F)c(C(F)(F)F)c3)cc2c2c1COC2` (racemic) [Example 349, (4-amino-1,3-dihydrofuro[3,4-c][1,7]naphthyridin-8-yl)((3R)-3-(4-fluoro-3-(trifluoromethyl)phenyl)-4-morpholinyl)methanone and (4-amino-1,3-dihydrofuro[3,4-c][1,7]naphthyridin-8-yl)((3S)-3-(4-fluoro-3-(trifluoromethyl)phenyl)-4-morpholinyl)methanone] are 505 nM and 20800 nM.
For `C[C@H]1CN(C(=O)c2ccc3nc(N)c4c(c3c2)COC4)[C@@H](c2ccc(C(F)(F)F)cn2)CO1` (single isomer, unassigned) [Example 575], the concentration for half-maximal inhibition (IC50) with HCT116 MTAP null cells (HCT116-MTAP null, 144 h) was 357 nM; in the experiment on HCT116 WT cells (Homo sapiens, HCT-116, 144 h), 8480 nM.
The matching figures for `COc1ccc(C2COCCN2C(=O)c2ccc3nc(N)c4c(c3c2)COC4)cc1` (racemic) [Example 365, (4-amino-1,3-dihydrofuro[3,4-c]quinolin-8-yl)-[rac-(3S)-3-(4-methoxyphenyl)morpholin-4-yl]methanone]: 1560 nM and over 10000 nM.
On the same counts, the results for `Cn1ncc2c(N)nc3cc(F)c(C(=O)N4CCOC[C@@H]4c4ccc(C(F)(F)F)cc4)cc3c21` [Example 420, (4-amino-7-fluoro-1-methyl-1H-pyrazolo[4,3-c]quinolin-8-yl)((3S)-3-(4-(trifluoromethyl)phenyl)-4-morpholinyl)methanone] are 12 nM and 338 nM.
The matching figures for `Cn1ncc2c(N)nc3cnc(C(=O)N4CC[C@H](c5ccc(C(F)(F)F)cc5)C4)cc3c21` [Example 426, (4-amino-1-methyl-1H-pyrazolo[4,3-c][1,7]naphthyridin-8-yl)((3R)-3-(4-(trifluoromethyl)phenyl)-1-pyrrolidinyl)methanone]: 97 nM and 4760 nM.
With `C[C@H]1COC[C@@H](c2ccc(C(F)(F)F)cc2F)N1C(=O)c1cc2c3c(c(N)nc2cn1)COC3` (racemic) [Example 334, (4-amino-1,3-dihydrofuro[3,4-c][1,7]naphthyridin-8-yl)((3R,5S)-3-(2-fluoro-4-(trifluoromethyl)phenyl)-5-methyl-4-morpholinyl)methanone and (4-amino-1,3-dihydrofuro[3,4-c][1,7]naphthyridin-8-yl)((3S,5R)-3-(2-fluoro-4-(trifluoromethyl)phenyl)-5-methyl-4-morpholinyl)methanone], the IC50 with HCT116 MTAP null cells (HCT116-MTAP null, 144 h) worked out at 27 nM; with HCT116 WT cells (Homo sapiens, HCT-116, 144 h), 706 nM.
For “(4-amino-7-fluoro-1-methyl- 1H-pyrazolo[4,3-c]quinolin- 8-yl)((4R)-3,3-dimethyl-4-(4- (trifluoromethyl)phenyl)-1- pyrrolidinyl)methanone and (4-amino-7-fluoro-1-methyl- 1H-pyrazolo[4,3-c]quinolin- 8-yl)((4S)-3,3-dimethyl-4-(4- (trifluoromethyl)phenyl)-1- pyrrolidinyl)methanone [Example 445]”, the results for the half-maximal inhibitory concentration (IC50) with HCT116 MTAP null cells and with HCT116 WT cells were 11 nM and 240 nM, respectively.
Take `Nc1nc2cnc(C(=O)N3CCOC[C@@H]3c3ncc(Br)cc3F)cc2c2c1COC2` (single isomer, unassigned) [Example 459]: the IC50 with HCT116 MTAP null cells (HCT116-MTAP null, 144 h) is 72 nM; in the experiment on HCT116 WT cells (Homo sapiens, HCT-116, 144 h) it was 6140 nM.
Consider `Nc1nc2cc(F)c(C(=O)N3CC(c4ccc(C(F)(F)F)cn4)C3)cc2c2c1COC2` [Example 423, (4-amino-7-fluoro-1,3-dihydrofuro[3,4-c]quinolin-8-yl)(3-(5-(trifluoromethyl)-2-pyridinyl)-1-azetidinyl)methanone], for which the IC50 is 653 nM in the experiment on HCT116 MTAP null cells (HCT116-MTAP null, 144 h) and 33300 nM in the experiment with HCT116 WT cells (Homo sapiens, HCT-116, 144 h).
On the same counts, the results for `COc1ccc([C@H]2COC[C@@H](C)N2C(=O)c2cc3c4c(c(N)nc3cn2)COC4)nn1` (relative stereo) [Example 491, (4-amino-1,3-dihydrofuro[3,4-c][1,7]naphthyridin-8-yl)((3S,5R)-3-(6-methoxypyridazin-3-yl)-5-methylmorpholino)methanone] are 108 nM and 4380 nM.
Take `Nc1nc2cc(F)c(C(=O)N3CC[C@H](c4ccc(C(F)(F)F)cc4)C3)cc2c2c1COC2` (single isomer, unassigned) [Example 468]: the half-maximal inhibitory concentration (IC50) in the experiment on HCT116 MTAP null cells (HCT116-MTAP null, 144 h) was 417 nM; in the experiment on HCT116 WT cells (Homo sapiens, HCT-116, 144 h), 37400 nM.
The matching figures for `Cn1ncc2c(N)nc3cc(Cl)c(C(=O)N4CC(O)(c5ccc(C(F)(F)F)cc5)C4)cc3c21` [Example 444, (4-amino-7-chloro-1-methyl-1H-pyrazolo[4,3-c]quinolin-8-yl)(3-hydroxy-3-(4-(trifluoromethyl)phenyl)-1-azetidinyl)methanone]: 18 nM and 499 nM.
In the case of `Cn1ncc2c(N)nc3cc(C(F)(F)F)c(C(=O)N4CCOC[C@@H]4c4ccc(C(F)(F)F)cc4)cc3c21` [Example 548, (4-amino-1-methyl-7-(trifluoromethyl)-1H-pyrazolo[4,3-c]quinolin-8-yl)((3S)-3-(4-(trifluoromethyl)phenyl)-4-morpholinyl)methanone], the IC50 was 269 nM in the experiment on HCT116 MTAP null cells (HCT116-MTAP null, 144 h) and 8110 nM in the experiment on HCT116 WT cells (Homo sapiens, HCT-116, 144 h).
